Here are results for 1 compound from ChEMBL document CHEMBL1128958, “Synthesis and biological activity of the neuronal calcium channel blocker 2-amino-1-(2,5-dimethoxyphenyl)-5-trifluoromethyl benzimidazole (NS-649)” (Bioorg Med Chem Lett, 1996).

One assay is filed under the species Mus musculus. Kind of assay: Concentration that blocked potassium evoked release of [3H]D-aspartate from mouse cerebellar granule neurons. In kind it is functional.
The next assay is filed under the species Cavia porcellus. Nature of the assay: Effect on [Ca2+]-induced contractions in potassium-depolarized guinea pig taenia coli. It is filed as functional.

`COc1ccc(OC)c(-n2c(N)nc3cc(C(F)(F)F)ccc32)c1` returned an IC50 in the assay listed under Mus musculus of about 2.4 µM. This compound also returned a Concentration in the assay listed under Cavia porcellus of 30 µM.
